Measurements reported in patent US11884675B2, “Heterocyclic compounds as triggering receptor expressed on myeloid cells 2 agonists and methods of use” (AMGEN INC., priority 2020, dated 2024).

Each molecule was assayed against hTREM2 (Homo sapiens, UniProt Q9NZC2) (assay: TREM2 activity by cellular Syk phosphorylation (AlphaScreen/AlphaLISA) in TREM2/DAP12-HEK cells, used for Examples 1-305). Settings: HEK293 Cells.
Chain of hTREM2 (Q9NZC2 19-230): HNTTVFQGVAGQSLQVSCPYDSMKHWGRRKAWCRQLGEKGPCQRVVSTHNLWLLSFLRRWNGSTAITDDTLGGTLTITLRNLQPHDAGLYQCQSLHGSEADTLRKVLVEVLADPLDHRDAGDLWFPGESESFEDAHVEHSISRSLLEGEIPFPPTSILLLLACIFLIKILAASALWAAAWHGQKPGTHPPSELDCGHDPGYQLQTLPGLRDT
Chain of hTREM2 (O43914 22-113 partner): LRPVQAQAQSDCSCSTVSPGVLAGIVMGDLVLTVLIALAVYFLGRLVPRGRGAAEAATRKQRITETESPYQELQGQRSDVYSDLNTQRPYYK
Assay type: cell-based
Set-up: expressed in transfected cells
Outline: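 Phospho-Syk (Tyr525/526) over total Syk quantified by AlphaScreen in lysates of cloned TREM2/DAP12-overexpressing HEK293 cells after 45 min compound treatment at room temperature, 1% final DMSO. Values expressed relative to 100 nM anti-TREM2 antibody (positive) and isotype IgG (negative) controls; curves fitted with 4-parameter logistic model.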
For `Cn1cc([C@H]2CN(c3nc(-c4ccc(Cl)cc4F)c4cccnc4n3)CCO2)cn1` [Example 83, 4-(4-chloro-2-fluorophenyl)-2-((2S)-2-(1-methyl-1H-pyrazol-4-yl)-4-morpholinyl)pyrido[2,3-d]pyrimidine], the EC50 was 500 to 3000 nM and the “hTREM2 Emax” value was “++++ (Emax>250)”. In the case of `Cc1cc([C@H]2CN(c3nc4nc(C)c(C)nc4c([C@H]4C[C@@H](C(F)F)C4)n3)CCO2)ccn1` [Example 53, 4-(cis-3-(difluoromethyl)cyclobutyl)-6,7-dimethyl-2-((2S)-2-(2-methyl-4-pyridinyl)-4-morpholinyl)pteridine], the EC50 is reported as ≤ 50 nM and the “hTREM2 Emax” value is reported as “++ (Emax>100 and ≤150)”. `Cc1nc2nc([C@H]3C[C@@H](C)O[C@@H](c4cnn(C)c4)C3)nc(-c3ccc(Cl)cc3F)c2nc1C` (single isomer, unassigned) [Example 216] was tested, and the EC50 was ≤ 50 nM and the “hTREM2 Emax” value was “+++ (Emax>150 and ≤250)”. With `Cc1ccc(-c2nc([C@@H]3CCO[C@H](c4cnn(C)c4)C3)nc3nc(C)c(C)cc23)c(F)c1` (single isomer, unassigned) [Example 202] the EC50 was 500 to 3000 nM and the “hTREM2 Emax” value was “++ (Emax>100 and ≤150)”. `Cc1nc2nc(N3CCO[C@@H](c4cnn(C5CC5)c4)C3)nc(-c3ccc(C(F)(F)F)nc3)c2nc1C` [Example 298, (S)-2-(1-cyclopropyl-1H-pyrazol-4-yl)-4-(6,7-dimethyl-4-(6-(trifluoromethyl)pyridin-3-yl)pteridin-2-yl)morpholine] was tested, and the EC50 was ≤ 50 nM and the “hTREM2 Emax” value was “+++ (Emax>150 and ≤250)”. In the case of `Cc1ccc2c(C34CC(C(F)(F)F)(C3)C4)nc(N3CCO[C@@H](c4cnn(C)c4)C3)nc2n1` [Example 100, 7-methyl-2-((2S)-2-(1-methyl-1H-pyrazol-4-yl)-4-morpholinyl)-4-(3-(trifluoromethyl)bicyclo[1.1.1]pentan-1-yl)pyrido[2,3-d]pyrimidine], the EC50 is reported as 50 to 500 nM and the “hTREM2 Emax” value is reported as “++ (Emax>100 and ≤150)”. `Cc1cc2c(-c3ccc(F)cc3F)nc(N3CCO[C@@H](c4cnn(C)c4)C3)nc2nc1C` [Example 166, 4-(2,4-difluorophenyl)-6,7-dimethyl-2((2S)-2-(1-methyl-1H-pyrazol-4-yl)-4-morpholinyl) pyrido[2,3-d]pyrimidine] was tested, and the EC50 was ≤ 50 nM and the “hTREM2 Emax” value was “++++ (Emax>250)”. For `Cc1nc2nc(N3CCO[C@@H](c4cnn(C)c4)C3)cc(-c3ccc(Cl)cc3F)c2nc1C` [Example 160, 8-(4-chloro-2-fluorophenyl)-2,3-dimethyl-6-((2S)-2-(1-methyl-1H-pyrazol-4-yl)-4-morpholinyl)pyrido [2,3-b]pyrazine], the EC50 was ≤ 50 nM and the “hTREM2 Emax” value was “++++ (Emax>250)”. `Cc1nc2nc(N3CCO[C@@H](c4cnn(C)c4)C3)nc(-c3ccc(Cl)cc3F)c2nc1C` [Example 21, 4-(4-chloro-2-fluorophenyl)-6,7-dimethyl-2-((2S)-2-(1-methyl-1H-pyrazol-4-yl)-4-morpholinyl)pteridine] was tested, and the EC50 was ≤ 50 nM and the “hTREM2 Emax” value was “++++ (Emax>250)”. In the case of `Cc1ccc2c(n1)nc(N1CCO[C@@H](c3cnn(C4CC4)c3)C1)nc2[C@H]1CC[C@@H](C(F)(F)F)CC1` [Example 144, 2-((2S)-2-(1-cyclopropyl-1H-pyrazol-4-yl)-4-morpholinyl)-7-methyl-4-(cis-4-(trifluoromethyl)cyclohexyl)pyrido [2,3-d]pyrimidine], the EC50 is reported as 50 to 500 nM and the “hTREM2 Emax” value is reported as “++ (Emax>100 and ≤150)”. With `Cc1cnc2c(n1)nc(N1CCO[C@@H](c3cnn(C4CC4)c3)C1)nc2[C@H]1C[C@H](C(F)(F)F)C1` [Example 13, 2-((2S)-2-(1-cyclopropyl-1H-pyrazol-4-yl)-4-morpholinyl)-7-methyl-4-(trans-3-(trifluoromethyl)cyclobutyl)pteridine] the EC50 was ≤ 50 nM and the “hTREM2 Emax” value was “+ (Emax>45 and ≤100)”. `Cc1ccc2c(-c3ccc(F)cc3F)nc([C@H]3CCO[C@@H](c4cnn(C)c4)C3)nc2n1` [Example 289, 4-(2,4-difluorophenyl)-7-methyl-2-((2R,4S)-2-(1-methyl-1H-pyrazol-4-yl)tetrahydro-2H-pyran-4-yl)pyrido[2,3-d] pyrimidine] was tested, and the EC50 was 3000 to 100000 nM and the “hTREM2 Emax” value was “++ (Emax>100 and ≤150)”. With `Cc1nc2nc(N3CCO[C@@H](c4cnn(C)c4)C3)nc(N3CC(C(F)F)C3)c2nc1C` [Example 269, (S)-4-(4-(3-(difluoromethyl)azetidin-1-yl)-6,7-dimethylpteridin-2-yl)-2-(1-methyl-1H-pyrazol-4-yl)morpholine] the EC50 was 3000 to 100000 nM and the “hTREM2 Emax” value was “+ (Emax>45 and ≤100)”. In the case of `Cc1ccc(-c2nc(N3CCO[C@@H](c4cnn(C5CC5)c4)C3)nc3nc(C)ccc23)c(F)c1` [Example 95, 2-((2S)-2-(1-cyclopropyl-1H-pyrazol-4-yl)-4-morpholinyl)-4-(2-fluoro-4-methylphenyl)-7-methylpyrido[2,3-d]pyrimidine], the EC50 is reported as ≤ 50 nM and the “hTREM2 Emax” value is reported as “+++ (Emax>150 and ≤250)”. In the case of `Cc1cc([C@@H]2CN(c3nc(-c4ccc(Cl)cc4F)c4cc(C)c(C)nc4n3)CCO2)cnn1` (single isomer, unassigned) [Example 105], the EC50 is reported as ≤ 50 nM and the “hTREM2 Emax” value is reported as “++++ (Emax>250)”. With `Cc1cc([C@@H]2C[C@@H](c3nc(-c4ccc(F)cc4F)c4nc(C)c(C)nc4n3)CCO2)ccn1` (single isomer, unassigned) [Example 212] the EC50 was 500 to 3000 nM and the “hTREM2 Emax” value was “++++ (Emax>250)”. In the case of `Cc1cc([C@H]2CN(c3nc(-c4ccc(Cl)cc4F)c4cc(C)c(C)nc4n3)CCO2)cnn1` (single isomer, unassigned) [Example 104], the EC50 is reported as ≤ 50 nM and the “hTREM2 Emax” value is reported as “+++ (Emax>150 and ≤250)”. In the case of `Cc1nc2nc([C@H]3CCO[C@@H](c4cnn(C)c4)C3)cc(-c3ccc(Cl)cc3F)c2nc1C` (single isomer, unassigned) [Example 187], the EC50 is reported as ≤ 50 nM and the “hTREM2 Emax” value is reported as “+++ (Emax>150 and ≤250)”. For `Cc1cc([C@@H]2CN(c3nc4nc(C)c(C)nc4c([C@H]4C[C@H](C(F)(F)F)C4)n3)CCO2)cnn1` [Example 52, 6,7-dimethyl-2-((2R)-2-(6-methyl-4-pyridazinyl)-4-morpholinyl)-4-(trans-3-(trifluoromethyl)cyclobutyl)pteridine], the EC50 was 50 to 500 nM and the “hTREM2 Emax” value was “+++ (Emax>150 and ≤250)”. For `Cc1cc([C@H]2C[C@H](c3nc(-c4ccc(F)cc4F)c4nc(C)c(C)nc4n3)CCO2)ccn1` (single isomer, unassigned) [Example 213], the EC50 was 50 to 500 nM and the “hTREM2 Emax” value was “+++ (Emax>150 and ≤250)”. `Cc1cnc2c(-c3ccc(Cl)cc3F)nc([C@@H]3CCO[C@H](c4cnc(C)nc4)C3)nc2n1` (single isomer, unassigned) [Example 174] was tested, and the EC50 was 50 to 500 nM and the “hTREM2 Emax” value was “+++ (Emax>150 and ≤250)”. `Cc1cc([C@H]2CN(c3nc(C4CCC(F)(F)CC4)c4nc(C)c(C)nc4n3)CCO2)ccn1` [Example 139, 4-(4,4-difluorocyclohexyl)-6,7-dimethyl-2-((2S)-2-(2-methyl-4-pyridinyl)-4-morpholinyl)pteridine] was tested, and the EC50 was ≤ 50 nM and the “hTREM2 Emax” value was “+++ (Emax>150 and ≤250)”. `Cc1ccc2c(-c3ccc(Cl)cc3F)cc(N3CCO[C@@H](c4cnn(C)c4)C3)nc2n1` [Example 156, 4-(4-chloro-2-fluorophenyl)-7-methyl-2-((2S)-2-(1-methyl-1H-pyrazol-4-yl)-4-morpholinyl)-1,8-naphthyridine] was tested, and the EC50 was 50 to 500 nM and the “hTREM2 Emax” value was “+++ (Emax>150 and ≤250)”.
